Assay results published in US10570104B2, “Metabolically programmed metal chelators and uses thereof” (University of Florida Research Foundation, Incorporated, priority 2015, dated 2020).
Entries after “also recorded” stand apart in the source; their conditions may differ. Where two headings read alike, the source gives them in different places.

How the values were obtained:
[1] = 2:1 complex with Fe(III), cited from earlier work
[2] = log Papp, octanol/TRIS buffer pH 7.4, shake flask direct method; type: physicochemical; conditions: not told
Description: The redesign of 2 was predicated on the observation that both ligands 2 and 3 were orally active iron chelators in rodents and primates (Table 1), and that when the 4′-(OH) of 2 was methylated, providing (S)-4,5-dihydro-2-(2-hydroxy-4-methoxyphenyl)-4-methyl-4-thiazolecarboxylic acid^43 [(S)-4′-(CH3O)-DADFT, 4], there was a remarkable enhancement in both ICE and lipophilicity (log Papp). The log Papp data are expressed as the log of the fraction of the chelator seen in the octanol layer; measurements were done in TRIS buffer, pH 7.4, using a “shake flask” direct method.^49 The more negative the log Papp, the less chelator is in the octanol phase, the less lipophilic. Unfortunately, the increase in ICE of 4 came with a concomitant increase in toxicity.^50 Thus, the delicate balance between the increase in ICE and toxicity with enhanced lipophilicity needed to be understood and exploited.

[3] = rats; cited from earlier work
[4] = 150 μmol/kg, cited from earlier work
[5] = 150 μmol/kg, cited from earlier work; remark: listed apart in the source
[6] = rats; cited from earlier work; remark: listed apart in the source

Row | Compound | cumulative formation constant [1] | cumulative formation constant ([1]; unit not given) | Log Papp [2] | nephrotoxicity [3] | Rodent ICE (%) ([4]; po) | Primate ICE (%) ([5]; po, historical) | effect on colitis [6] | Rodent ICE (%) ([4]; sc) | Primate ICE (%) ([5]; sc)
1 | C[C@]1(C(=O)O)CSC(c2ncccc2O)=N1 [Compound 1, (S)-4,5-dihydro-2-(3-hydroxy-2-pyridinyl)-4-methyl-4-thiazolecarboxylic acid] | 4e+29 M⁻¹ | 4×10^29 | −1.77 | severe nephrotoxicity; also recorded: unacceptable renal toxicity | 5.5±3.2% | 16.1±8.5% | – | – | –
2 | CC(=O)N(O)CCCCCNC(=O)CCC(=O)N(O)CCCCCNC(=O)CCC(=O)N(O)CCCCCN [DFO, desferrioxamine B] | – | – | – | – | – | – | prevent acetic acid-induced colitis | 2.5 ± 0.7% | 5.5 ± 0.9%
